Measured values as given in publication PMC9774241, “Associating Biological Activity and Predicted Structure of Antimicrobial Peptides from Amphibians and Insects” (Antibiotics, 2022).
≈ marks a conversion by molar mass, not a printed value. Residues, ends and D or L forms follow the SMILES beside them. No end group written: not given here.

What was measured:
Type in all cases: cell-based
Details in all cases: broth microdilution in MHB, peptide 128 down to 0.5 µg/mL, 20–24 h at 37 °C, no visible growth; range of three independent experiments
[1] = tested on: Escherichia coli ATCC 25922
Protocol: (§1) Bacteria were grown overnight at 37 °C in Mueller-Hinton Broth (MHB; Sigma-Aldrich, St. Louis. MO, USA) in a shaking incubator and aliquoted into cryovials with a 50% glycerol solution in a 1:1 ratio. No additives were added to the MHB during the growth of bacterial isolates. Glycerol stocks were stored at −80 °C.
(§2) The antimicrobial activity of the putative AMPs was determined by a broth microdilution assay as described by the Clinical and Laboratory Standards Institute, with the published adaptations for testing of cationic peptides. Escherichia coli 25922 and Staphylococcus aureus 29213 isolates were purchased from the American Type Culture Collection (ATCC; Manassas, VA, USA). A human clinical isolate of Salmonella enterica serovar Enteritidis was provided by the BC Centre for Disease Control. Bacteria from stocks stored at −80 °C were streaked onto nonselective Columbia blood agar with 5% sheep blood (Oxoid) and incubated overnight at 37 °C. Next, 2–4 colonies were streaked onto a new agar plate to ensure uniform health of colonies used in the broth microdilution assay. Isolated colonies were suspended in MHB and the optical density was measured with a spectrophotometer to create an initial inoculum concentration of approximately 1 × 10^8 cfu/mL. The inoculum was diluted 1:250 to a final concentration of 2–8 × 10^5 cfu/mL, which was confirmed by performing a Total Viability Count (TVC). The TVC consisted of plating a 1:1000 dilution of the final inoculum on nonselective media and was also used to confirm the health and purity of the inoculum in each trial.
(§3) Lyophilized 80 µg peptide aliquots synthesized by GenScript (Piscataway, NJ, USA) were resuspended to 1.28 mg/mL with UltraPure water (Thermo Fisher Scientific, Waltham, MA, USA) and serially diluted in polypropylene 96-well microtiter plates (Greiner Bio-One #650261, Kremsmünster, Austria) from 128 down to 0.5 µg/mL. Two columns per plate were reserved for growth and sterility controls. Inoculum was added to the wells containing the peptide and the growth control. Plates were incubated for 20–24 h at 37 °C. The minimum inhibitory concentration (MIC) was determined as the lowest peptide concentration where there was no visible bacterial growth.

[2] = tested on: Salmonella enterica serovar Enteritidis (human clinical isolate)
Protocol: as §1, §2, §3

[3] = tested on: Staphylococcus aureus ATCC 29213
Protocol: as §1, §2, §3

| Molecule | MIC, E. coli ATCC 25922 [1] [µg/mL] | MIC, Salmonella Enteritidis [2] [µg/mL] | MIC, S. aureus ATCC 29213 [3] [µg/mL] |
| --- | --- | --- | --- |
| CC[C@H](C)[C@H](NC(=O)CN)C(=O)N[C@@H](CC(C)C)C(=O)N[C@@H](CO)C(=O)NCC(=O)N[C@@H](CC(C)C)C(=O)N[C@@H](CC(C)C)C(=O)NCC(=O)N[C@@H](C)C(=O)NCC(=O)N[C@@H](CCCCN)C(=O)N[C@@H](CCCCN)C(=O)N[C@H](C(=O)N[C@H](C(=O)N[C@@H](CS)C(=O)NCC(=O)N[C@@H](CC(C)C)C(=O)N[C@@H](CO)C(=O)NCC(=O)N[C@@H](CC(C)C)C(=O)N[C@@H](CS)C(=O)O)C(C)C)[C@@H](C)CC [OdMa5] (H-GILSGLLGAGKKIVCGLSGLC-OH; N-terminus and C-terminus assumed) | 8 to 16 | 64 to 128 | 8 to 16 |
| GAHKEVFKRDTALTKEAAKKAKK [ApMe2] | > 128 | > 128 | > 128 |
| WALRWKTR [PaVi1] | > 128 | > 128 | > 128 |
| GLLGKVLGVGKKVLC [PeNi4, rAMPage-discovered AMP, Pelophylax nigromaculatus] | 8 to 16 | 4 to 8 | 4 to 8 |
| FILHAKKTRSAK [VeSi1] | > 128 | > 128 | > 128 |
| CC[C@H](C)[C@H](NC(=O)CNC(=O)[C@H](CCCNC(=N)N)NC(=O)[C@H](CCCCN)NC(=O)[C@H](CCCCN)NC(=O)[C@H](CCCNC(=N)N)NC(=O)[C@@H]1CCCN1C(=O)[C@@H](NC(=O)[C@H](CCSC)NC(=O)[C@H](CC(C)C)NC(=O)[C@@H](N)CCCCN)[C@@H](C)CC)C(=O)N[C@@H](Cc1ccccc1)C(=O)NCC(=O)NCC(=O)N[C@@H](CC(C)C)C(=O)N[C@@H](CC(C)C)C(=O)N[C@@H](CCCCN)C(=O)N[C@H](C(=O)NCC(=O)N[C@@H](CCCCN)C(=O)N[C@@H](CCCCN)C(=O)N[C@H](C(=O)N[C@@H](C)C(=O)N[C@@H](CS)C(=O)NCC(=O)N[C@@H](CC(C)C)C(=O)N[C@@H](CO)C(=O)NCC(=O)N[C@@H](CC(C)C)C(=O)N[C@@H](CS)C(=O)O)[C@@H](C)CC)C(C)C [OdTo4] (H-KLMIPRKKRGIFGGLLKVGKKIACGLSGLC-OH; N-terminus and C-terminus assumed) | 8 to 16 | 16 (≈ 5.02 µM) | 16 (≈ 5.02 µM) |
| CC[C@H](C)[C@H](NC(=O)CNC(=O)[C@H](CO)NC(=O)[C@H](CC(C)C)NC(=O)[C@H](CC(C)C)NC(=O)CN)C(=O)N[C@@H](CC(C)C)C(=O)NCC(=O)N[C@@H](C)C(=O)NCC(=O)N[C@@H](CCCCN)C(=O)N[C@@H](CCCCN)C(=O)N[C@H](C(=O)N[C@H](C(=O)N[C@@H](CS)C(=O)NCC(=O)N[C@@H](Cc1ccccc1)C(=O)N[C@@H](CO)C(=O)NCC(=O)N[C@@H](CC(C)C)C(=O)N[C@@H](CS)C(=O)O)C(C)C)[C@@H](C)CC [OdMa1] (H-GLLSGILGAGKKIVCGFSGLC-OH; N-terminus and C-terminus assumed) | 8 to 16 | 128 (≈ 64.2 µM) | 64 (≈ 32.1 µM) |
| CC[C@H](C)[C@H](NC(=O)[C@H](CO)NC(=O)[C@@H]1CCCN1C(=O)[C@H](CC(C)C)NC(=O)[C@@H](NC(=O)[C@H](CCCCN)NC(=O)[C@H](C)NC(=O)[C@H](C)NC(=O)[C@H](CC(C)C)NC(=O)CNC(=O)[C@H](C)NC(=O)[C@@H](NC(=O)[C@@H](NC(=O)[C@@H]1CCCN1C(=O)[C@H](CC(C)C)NC(=O)[C@@H](N)Cc1ccccc1)C(C)C)C(C)C)C(C)C)C(=O)N[C@H](C(=O)N[C@@H](CS)C(=O)N[C@@H](C)C(=O)N[C@H](C(=O)N[C@H](C(=O)N[C@@H](CCCCN)C(=O)N[C@@H](CCCCN)C(=O)N[C@@H](CS)C(=O)O)[C@@H](C)O)C(C)C)[C@@H](C)CC [RaCa15] (H-FLPVVAGLAAKVLPSIICAVTKKC-OH; N-terminus and C-terminus assumed) | 8 to 16 | > 128 | 4 to 8 |
| RPRWSHRSRR [PeNi18] | > 128 | > 128 | > 128 |
| CC[C@H](C)[C@H](NC(=O)CN)C(=O)N[C@@H](Cc1ccccc1)C(=O)NCC(=O)NCC(=O)N[C@@H](Cc1c[nH]cn1)C(=O)N[C@@H](CC(C)C)C(=O)N[C@@H](CCCCN)C(=O)N[C@H](C(=O)NCC(=O)N[C@@H](CCCCN)C(=O)N[C@@H](CCCCN)C(=O)N[C@H](C(=O)N[C@@H](C)C(=O)N[C@@H](CS)C(=O)NCC(=O)N[C@@H](CC(C)C)C(=O)N[C@@H](CO)C(=O)NCC(=O)N[C@@H](CC(C)C)C(=O)N[C@@H](CS)C(=O)O)[C@@H](C)CC)C(C)C [OdTo2] (H-GIFGGHLKVGKKIACGLSGLC-OH; N-terminus and C-terminus assumed) | 32 (≈ 15.5 µM) | > 128 | > 128 |
| ATAWKVPPGLQPIRPIRIRPLCGNDKS [PeNi16] | > 128 | > 128 | > 128 |
| CC[C@H](C)[C@H](NC(=O)[C@@H](N)C(C)C)C(=O)N1CCC[C@H]1C(=O)N[C@@H](Cc1ccccc1)C(=O)N[C@H](C(=O)N[C@@H](C)C(=O)N[C@@H](CO)C(=O)N[C@H](C(=O)N[C@@H](C)C(=O)N[C@@H](C)C(=O)N[C@@H](CCC(=O)O)C(=O)N[C@@H](CCSC)C(=O)N[C@@H](CCSC)C(=O)N[C@@H](Cc1c[nH]cn1)C(=O)N[C@@H](Cc1c[nH]cn1)C(=O)N[C@H](C(=O)N[C@@H](Cc1ccc(O)cc1)C(=O)N[C@@H](CS)C(=O)N[C@@H](C)C(=O)N[C@@H](C)C(=O)N[C@@H](CO)C(=O)N[C@@H](CCCCN)C(=O)N[C@@H](CCCNC(=N)N)C(=O)N[C@@H](CS)C(=O)N[C@@H](CCCCN)C(=O)N[C@@H](CC(N)=O)C(=O)O)C(C)C)C(C)C)C(C)C [PeNi7] (H-VIPFVASVAAEMMHHVYCAASKRCKN-OH; N-terminus and C-terminus assumed) | 128 (≈ 44.7 µM) | > 128 | > 128 |
| KLFLTLWKLKR [NaVi3] | 8 to 16 | 64 | 128 |
| CC[C@H](C)[C@H](NC(=O)[C@H](CCCCN)NC(=O)[C@H](CCCCN)NC(=O)CNC(=O)[C@H](C)NC(=O)CNC(=O)[C@H](CC(C)C)NC(=O)[C@H](CC(C)C)NC(=O)CNC(=O)[C@H](CO)NC(=O)[C@H](CC(C)C)NC(=O)[C@H](CC(C)C)NC(=O)CN)C(=O)N[C@H](C(=O)N[C@@H](CS)C(=O)NCC(=O)N[C@@H](CC(C)C)C(=O)N[C@@H](CO)C(=O)NCC(=O)N[C@@H](CCSC)C(=O)N[C@@H](CS)C(=O)O)C(C)C [OdMa3] (H-GLLSGLLGAGKKIVCGLSGMC-OH; N-terminus and C-terminus assumed) | 8 to 16 | 64 (≈ 32.4 µM) | 32 (≈ 16.2 µM) |
| VKCRVRR [ApMe1] | > 128 | > 128 | > 128 |
| AVLSFVHKLFLNFLHVDTSKGKCRATLQ [TeRu3] | > 128 | > 128 | > 128 |
| GWGLINIKIPPVLHKVSVPLVSKR [ApMe3] | > 128 | > 128 | > 128 |
| GLISGILGAGKKVLC [OdMa9] | 64 to 128 | 128 | > 128 |
| GAFVLWGPTPRPRRR [DiLo1] | 128 | > 128 | > 128 |
